Experimental data as given in patent publication US11535643B2, “Macrolides with modified desosamine sugars and uses thereof” (President and Fellows of Harvard College, priority 2015, dated 2022).
Values after ≈ are worked out from the molar mass of the structure shown.

Experiments:
Format in all cases: cell-based
E. faecalis = assay: Broth dilution MIC determination (CLSI) against E. faecalis strains
Source text: (§1) Minimum inhibitory concentrations (MICs) for macrolides described herein have been determined for unique strains of S. aureus, S. pneumoniae, S. pyogenes, E. faecalis, E. coli, A. baumannii, K. pneumoniae, P. aeruginosa, and H. influenzae, including several multidrug-resistant strains, with a special focus on macrolide resistant mechanisms. Azithromycin and solithromycin were included as control compounds. CLSI standard procedures for broth dilution MIC determination were used. Data for exemplary compounds described herein is shown in Tables M1-M7 and in Tables N1-N4.

E. coli = assay: Broth dilution MIC determination (CLSI) against E. coli strains
Source text: as §1

S. aureus = assay: Broth dilution MIC determination (CLSI) against S. aureus strains
Source text: as §1

S. pyogenes = assay: Broth dilution MIC determination (CLSI) against S. pyogenes strains
Source text: as §1

P. aeruginosa = assay: Broth dilution MIC determination (CLSI) against P. aeruginosa strains
Source text: as §1

A. baumannii = assay: Broth dilution MIC determination (CLSI) against A. baumannii strains
Source text: as §1

K. pneumoniae = assay: Broth dilution MIC determination (CLSI) against K. pneumoniae strains
Source text: Minimum inhibitory concentrations (MICs) for macrolides described herein have been determined for unique strains of S. aureus, S. pneumoniae, S. pyogenes, E. faecalis, E. coli, A. baumannii, K. pneumoniae, P. aeruginosa, and H. influenzae, including several multidrug-resistant strains, with a special focus on macrolide resistant mechanisms. Azithromycin and solithromycin were included as control compounds. CLSI standard procedures for broth dilution MIC determination were used.

S. pneumoniae = assay: Broth dilution MIC determination (CLSI) against S. pneumoniae strains
Source text: as §1

[1] = E. faecalis ATCC29212, strain MP-24 (Table N2)
[2] = E. faecalis van resistant, strain UNT-039 (Table N2)
[3] = E. coli ATCC25922, strain MP-4 (Table N2)
[4] = E. coli ATCC25922:tolC, strain MP-9 (Table N2)
[5] = E. coli clinical, strain MP541 (Table N2)
[6] = E. coli clinical-cErm, strain MP532 (Table N2)
[7] = S. aureus (MRSA) GISA USA600, strain MP-619 UNT-120 (Table N2)
[8] = S. aureus (MRSA) ST-228 cErm, strain MP-513 (Table N2)
[9] = S. aureus (MRSA) USA100, strain MP-618 UNT-096 (Table N2)
[10] = S. aureus (MRSA) USA300, strain MP-549 (Table N2)
[11] = S. aureus (MRSA) ermA phenotype, strain MP-620 UNT-146 (Table N2)
[12] = S. aureus ATCC29213, strain MP-12 (Table N2)
[13] = S. aureus ATCCBAA-977, strain MP-17 (Table N2)
[14] = S. pyogenes ATCC19615, strain MP-19 (Table N2)
[15] = S. pyogenes mac resistant, strain MP-625 UNT-014 (Table N2)
[16] = P. aeruginosa ATCC27853, strain MP-3 (Table N2)
[17] = P. aeruginosa PAO1, strain MP-7 (Table N2)
[18] = P. aeruginosa PAO1:mex, strain MP-8 (Table N2)
[19] = A. baumannii ATCC19606, strain MP-15 (Table N2)
[20] = A. baumannii clinical, strain MP576 (Table N2)
[21] = A. baumannii clinical, strain MP577 (Table N2)
[22] = K pneumomae ATCC10031, strain MP-14 (Table N2)
[23] = K. pneumoniae clinical, strain MP546 (Table N2)
[24] = K. pneumoniae clinical, strain MP548 (Table N2)
[25] = S. pneumoniae ATCC49619, strain MP-21 (Table N2)
[26] = S. pneumoniae mefA, strain MP-626 UNT-038 (Table N2)
[27] = S. pneumoniae mefA, strain MP-627 UNT-039 (Table N2)

CCC1OC(=O)C(C)C(=O)C(C)C(OC2OC(C)CC(N(C)CC#N)C2O)C(C)(OC)CC(C)CNC(C)C2N(CCCCn3cc(-c4cccc(N)c4)nn3)C(=O)OC12C (stereo not drawn) [FSM-120371]
MIC (E. faecalis; [1]): 4 µg/mL (≈ 4.69 µM)
MIC (E. faecalis; [2]): 64 µg/mL (≈ 75 µM)
MIC (E. coli; [3]): 64 µg/mL (≈ 75 µM)
MIC (E. coli; [4]): 16 µg/mL (≈ 18.8 µM)
MIC (E. coli; [5]): 64 µg/mL (≈ 75 µM)
MIC (E. coli; [6]): >64 µg/mL
MIC (S. aureus; [7]): >64 µg/mL
MIC (S. aureus; [8]): >64 µg/mL
MIC (S. aureus; [9]): >64 µg/mL
MIC (S. aureus; [10]): 64 µg/mL (≈ 75 µM)
MIC (S. aureus; [11]): >64 µg/mL
MIC (S. aureus; [12]): 32 µg/mL (≈ 37.5 µM)
MIC (S. aureus; [13]): 32 µg/mL (≈ 37.5 µM)
MIC (S. pyogenes; [14]): 0.125 µg/mL (≈ 0.147 µM)
MIC (S. pyogenes; [15]): 1 µg/mL (≈ 1.17 µM)
MIC (P. aeruginosa; [16]): >64 µg/mL
MIC (P. aeruginosa; [17]): >64 µg/mL
MIC (P. aeruginosa; [18]): 32 µg/mL (≈ 37.5 µM)
MIC (A. baumannii; [19]): 32 µg/mL (≈ 37.5 µM)
MIC (A. baumannii; [20]): >64 µg/mL
MIC (A. baumannii; [21]): >64 µg/mL
MIC (K. pneumoniae; [22]): 8 µg/mL (≈ 9.38 µM)
MIC (K. pneumoniae; [23]): >64 µg/mL
MIC (K. pneumoniae; [24]): >64 µg/mL
MIC (S. pneumoniae; [25]): 0.25 µg/mL (≈ 0.293 µM)
MIC (S. pneumoniae; [26]): 0.25 µg/mL (≈ 0.293 µM)
MIC (S. pneumoniae; [27]): 0.5 µg/mL (≈ 0.586 µM)

CCC1OC(=O)C(C)C(=O)C(C)C(OC2OC(C)CC(NCc3cccnc3)C2O)C(C)(OC)CC(C)CNC(C)C2N(CCCCn3cc(-c4cccc(N)c4)nn3)C(=O)OC12C (stereo not drawn) [FSM-120384]
MIC (E. faecalis; [1]): 32 µg/mL (≈ 35.9 µM)
MIC (E. faecalis; [2]): >64 µg/mL
MIC (E. coli; [3]): >64 µg/mL
MIC (E. coli; [4]): 8 µg/mL (≈ 8.98 µM)
MIC (E. coli; [5]): >64 µg/mL
MIC (E. coli; [6]): >64 µg/mL
MIC (S. aureus; [7]): >64 µg/mL
MIC (S. aureus; [8]): >64 µg/mL
MIC (S. aureus; [9]): >64 µg/mL
MIC (S. aureus; [10]): >64 µg/mL
MIC (S. aureus; [11]): >64 µg/mL
MIC (S. aureus; [12]): >64 µg/mL
MIC (S. aureus; [13]): >64 µg/mL
MIC (S. pyogenes; [14]): 1 µg/mL (≈ 1.12 µM)
MIC (S. pyogenes; [15]): 4 µg/mL (≈ 4.49 µM)
MIC (P. aeruginosa; [16]): >64 µg/mL
MIC (P. aeruginosa; [17]): >64 µg/mL
MIC (P. aeruginosa; [18]): >64 µg/mL
MIC (A. baumannii; [19]): 64 µg/mL (≈ 71.8 µM)
MIC (A. baumannii; [20]): >64 µg/mL
MIC (A. baumannii; [21]): >64 µg/mL
MIC (K. pneumoniae; [22]): 16 µg/mL (≈ 18 µM)
MIC (K. pneumoniae; [23]): >64 µg/mL
MIC (K. pneumoniae; [24]): >64 µg/mL
MIC (S. pneumoniae; [25]): 2 µg/mL (≈ 2.24 µM)
MIC (S. pneumoniae; [26]): 0.5 µg/mL (≈ 0.561 µM)
MIC (S. pneumoniae; [27]): 1 µg/mL (≈ 1.12 µM)
